{"source": "BindingDB's records for doi:10.7270/Q20R9MZM", "about": "(Merrell Dow Research Institute, 1990)"}
{"molecular_target": "T1, Prunasin hydrolase (Prunus dulcis, UniProt H9ZGD9)", "T1 sequence (H9ZGD9 whole entry)": "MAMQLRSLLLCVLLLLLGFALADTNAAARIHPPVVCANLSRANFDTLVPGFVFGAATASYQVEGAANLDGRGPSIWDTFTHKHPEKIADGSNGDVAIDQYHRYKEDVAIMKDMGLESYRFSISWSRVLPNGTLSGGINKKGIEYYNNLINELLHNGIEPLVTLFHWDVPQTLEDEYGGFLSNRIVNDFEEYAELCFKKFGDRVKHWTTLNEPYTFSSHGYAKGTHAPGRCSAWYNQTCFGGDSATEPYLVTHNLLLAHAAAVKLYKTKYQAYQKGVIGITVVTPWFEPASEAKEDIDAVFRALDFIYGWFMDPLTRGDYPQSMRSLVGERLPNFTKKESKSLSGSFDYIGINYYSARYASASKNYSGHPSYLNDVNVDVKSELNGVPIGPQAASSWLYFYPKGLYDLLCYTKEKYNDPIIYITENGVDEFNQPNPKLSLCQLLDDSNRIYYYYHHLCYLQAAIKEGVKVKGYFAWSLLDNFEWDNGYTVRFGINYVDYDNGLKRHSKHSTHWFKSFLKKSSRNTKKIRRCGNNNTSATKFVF", "experiment": "Enzyme Assay", "settings": "pH 5.6; 37 °C", "method": "The enzyme activity was measured by monitoring the increase in absorbance at 400 nm due to hydrolysis of para-nitrophenyl-beta-glucopyranoside. All assays were carried out in the presence of 0.05M sodium acetate buffer (pH 5.6) and 0.1 mM EDTA at 37 C.", "units": {"Ki": "µM"}}
{"smiles": "OC[C@H]1O[C@@H](Oc2ccc(C(F)F)cc2)[C@H](O)[C@@H](O)[C@@H]1O", "note": "[Glucosidase inhibitor, 6a]", "Ki": 1700}
{"smiles": "COc1cc(C(F)F)ccc1O[C@@H]1O[C@H](CO)[C@@H](O)[C@H](O)[C@H]1O", "note": "[Glucosidase inhibitor, 6b]", "Ki": 60}
{"smiles": "CCOc1cc(C(F)F)ccc1O[C@@H]1O[C@H](CO)[C@@H](O)[C@H](O)[C@H]1O", "note": "[Glucosidase inhibitor, 6c]", "Ki": 100}
{"smiles": "COc1cc(C(F)F)cc(OC)c1O[C@@H]1O[C@H](CO)[C@@H](O)[C@H](O)[C@H]1O", "note": "[Glucosidase inhibitor, 6d]", "Ki": 1900}
{"smiles": "OC[C@H]1O[C@@H](Oc2ccccc2C(F)F)[C@H](O)[C@@H](O)[C@@H]1O", "note": "[Glucosidase inhibitor, 6e]", "Ki": 3700}
{"smiles": "COc1ccc(O[C@@H]2O[C@H](CO)[C@@H](O)[C@H](O)[C@H]2O)c(C(F)F)c1", "note": "[Glucosidase inhibitor, 6f]", "Ki": 900}
{"smiles": "COc1cc(CF)ccc1O[C@@H]1O[C@H](CO)[C@@H](O)[C@H](O)[C@H]1O", "note": "[Glucosidase inhibitor, 11]", "Ki": 800}
